According to patent publication US7399775B2, “β-amyloid protein production/secretion inhibitor” (Daiichi Pharmaceutical Co., Ltd., priority 2001, dated 2008):
Read-outs that look alike come from different tables or passages of the source.

Legend:
[1] = test system: β-amyloid protein (Aβ) production/secretion in E35 cells (H4 cells transfected with APP751); experiment: Cell-based assay for inhibition of production or secretion of β-amyloid protein (sandwich ELISA of Aβ in culture medium); parameters: species or system human; conditions: 24 h with compound, Aβ in medium by sandwich ELISA, read-out: Activity (EC50 class, inhibition of Aβ secreted in culture medium)
Description: Cell-Based Assay for Screening of a Compound Which Inhibits Production or Secretion of β-Amyloid Protein
E35 cells which were established by transfecting APP751 gene which is a wild type human β-amyloid protein precursor into human glioma cells (H4 cells), were used to analyze inhibitory activity of a compound against β-amyloid production. The amount of β protein (Aβ) secreted in a culture medium was measured by the sandwich enzyme-linked imunosorbent assay.
E35 cells were seeded in Dulbecco's Modified Eagle's Medium containing 10% inactivated fetal bovine serum on 96-well plates and cultured in humidified air and 5% CO2 at 37° C. in a CO2 incubator. Twenty-four hours after seeding of the cells, a test compound dissolved in DMSO was added to the medium. The DMSO solution of the compound was prepared so as to give the final concentration of DMSO in the medium 0.05%. The cells were cultured for additional twenty-four hours, and then the cultured medium was collected. The medium collected was applied to a 96-well ELISA plate on which a monoclonal antibody 25-1, which recognized Aβ25-35, was immobilized, followed by the incubation at 4° C. for 16 to 20 hours. After washing with a phosphate buffer (pH 7.4), a biotinylated monoclonal antibody MA32-40, which recognizes Aβ1-8, was added to the plate, and the plate was incubated at 4° C. for 2 hours. Then alkaline phosphatase-conjugated streptavidin was added to the plate. Alkaline phosphatase activity was measured by a […] assay using BlouPhos (manufactured by KPL) as a substrate. An amount of Aβ in the medium was calculated using a calibration curve separately created. EC50 of the test compound was presented as the concentration that gives 50% inhibitory activity compared to the control cells which were not treated with the compound.

SMILES	EC50 [1]	EC50 ([1]; Homo sapiens, 24 h)	melting point
CSCCCC(C)C(c1cc(F)ccc1F)S(=O)(=O)c1ccc(Cl)cc1 (single isomer, unassigned) [Example 43 (Isomer 43-B), 2-[1-[(4-Chlorophenyl)sulfonyl]-2-methyl-5-(methylthio)pentyl]-1,4-difluorobenzene]	50 to 500 nM		
CCCCC(c1cc(F)ccc1F)S(=O)(=O)c1ccc(Cl)cc1 (centres unmarked) [Example 3, 2-[1-[(4-Chlorophenyl)sulfonyl]pentyl]-1,4-difluorobenzene]		50 to 500 nM	
CCCC(O)C(c1cc(F)ccc1F)S(=O)(=O)c1ccc(Cl)cc1 (centres unmarked) [Example 10, 1-[(4-Chlorophenyl)sulfonyl]-1-(2,5-difluorophenyl)-2-pentanol]		50 to 500 nM	134.5 to 135 °C
CCCC=C(c1cc(F)ccc1F)S(=O)(=O)c1ccc(Cl)cc1 [Example 12, 2-[1-[(4-Chlorophenyl)sulfonyl]-1-penten-1-yl]-1,4-difluorobenzene]		500 to 5000 nM	95.5 to 97 °C
CCC=CC(c1cc(F)ccc1F)S(=O)(=O)c1ccc(Cl)cc1 (centres unmarked) [Example 14, 2-[1-[(4-Chlorophenyl)sulfonyl]-2-penten-1-yl]-1,4-difluorobenzene]		500 to 5000 nM	99 to 100 °C
CC(CCCCO)(c1cc(F)ccc1F)S(=O)(=O)c1ccc(Cl)cc1 (centres unmarked) [Example 17, 5-(4-Chlorophenylsulfonyl)-5-(2,5-difluorophenyl)-1-hexanol]		500 to 5000 nM	
CS(=O)(=O)CCCCC(c1cc(F)ccc1F)S(=O)(=O)c1ccc(Cl)cc1 (centres unmarked) [Example 27 (Compound A), 2-[1-[(4-Chlorophenyl)sulfonyl]-5-(methylsulfonyl)pentyl]-1,4-difluorobenzene]		50 to 500 nM	
O=S(=O)(c1ccc(Cl)cc1)C(CCCCO)c1cc(F)ccc1F (centres unmarked) [Example 29, 5-[(4-Chlorophenyl)sulfonyl]-5-(2,5-difluorophenyl)-1-pentanol]		50 to 500 nM	84 to 86 °C
O=S(=O)(c1ccc(Cl)cc1)C(CCCCCO)c1cc(F)ccc1F (centres unmarked) [Example 32, 6-[(4-Chlorophenyl)sulfonyl]-6-(2,5-difluorophenyl)-1-hexanol]		50 to 500 nM	98 to 99 °C
O=S(=O)(c1ccc(Cl)cc1)C1(c2cc(F)ccc2F)CCCCC1 [Example 33, 2-[1-[(4-Chlorophenyl)sulfonyl]cyclohexyl]-1,4-difluorobenzene]		≤ 50 nM	137 to 139 °C
O=S(=O)(c1ccc(Cl)cc1)C(CCOCCO)c1cc(F)ccc1F (centres unmarked) [Example 35, 2-[3-[(4-Chlorophenyl)sulfonyl]-3-(2,5-difluorophenyl)propoxy]ethanol]		500 to 5000 nM	41 to 46 °C
O=S(=O)(c1ccc(Cl)cc1)C(c1cc(F)ccc1F)C1CCCCC1 (centres unmarked) [Example 36, 2-[[(4-Chlorophenyl)sulfonyl](cylcohexyl)methyl]-1,4-difluorobenzene]		50 to 500 nM	107 to 109 °C
CC(CCC[S+](C)[O-])C(c1cc(F)ccc1F)S(=O)(=O)c1ccc(Cl)cc1 (centres unmarked) [Example 45, 2-[1-[(4-Chlorophenyl)sulfonyl]-2-methyl-5-(methylsulfinyl)pentyl]-1,4-difluorobenzene]		≤ 50 nM	107 to 112 °C
CC(CCCS(C)(=O)=O)C(c1cc(F)ccc1F)S(=O)(=O)c1ccc(Cl)cc1 (centres unmarked) [Example 46, 2-[1-[(4-Chlorophenyl)sulfonyl]-2-methyl-5-(methylsulfonyl)pentyl]-1,4-difluorobenzene]		50 to 500 nM	115 to 117 °C
CC(CCCS(C)(=O)=O)C(c1cc(F)ccc1F)S(=O)(=O)c1ccc(Cl)cc1 (centres unmarked) [Example 47, 2-[1-[(4-Chlorophenyl)sulfonyl]-2-methyl-5-(methylsulfonyl)pentyl]-1,4-difluorobenzene]	≤ 50 nM		142 to 144 °C
O=S(=O)(c1ccc(Cl)cc1)C1(c2cc(F)ccc2F)CCOCC1 [Example 48, 4-[(4-Chlorophenyl)sulfonyl]-4-(2,5-difluorophenyl)tetrahydropyrane]		≤ 50 nM	157 to 160 °C
Cc1cccnc1C(c1cc(F)ccc1F)S(=O)(=O)c1ccc(Cl)cc1 (centres unmarked) [Example 136, 2-[[(4-Chlorophenyl)sulfonyl]-(2,5-difluorophenyl)methyl]-3-methylpyridine]		≤ 50 nM	142 to 143 °C

SMILES	EC50 [1]	EC50 ([1]; Homo sapiens, 24 h)	melting point
O=S(=O)(c1ccc(Cl)cc1)C(c1cccnc1)c1cc(F)ccc1F (centres unmarked) [Example 141, 3-[[(4-Chlorophenyl)sulfonyl]-(2,5-difluorophenyl)methyl]pyridine]		50 to 500 nM	130 to 131 °C
O=S(=O)(c1ccc(Cl)cc1)C(c1ccncc1)c1cc(F)ccc1F (centres unmarked) [Example 142, 4-[[(4-Chlorophenyl)sulfonyl]-(2,5-difluorophenyl)methyl]pyridine]		50 to 500 nM	126 to 127 °C
O=S(=O)(c1ccc(Cl)cc1)C(c1cc(F)ccc1F)C1CCOCC1 (centres unmarked) [Example 287, 4-[[(4-Chlorophenyl)sulfonyl](2,5-difluorophenyl)methyl]tetrahydropyran]		50 to 500 nM	150 to 152 °C
O=S(=O)(c1ccc(Cl)cc1)C(c1cc(F)ccc1F)C1CCSCC1 (centres unmarked) [Example 288, 4-[[(4-Chlorophenyl)sulfonyl](2,5-difluorophenyl)methyl]tetrahydrothiopyran]		50 to 500 nM	150 to 152 °C
O=S(=O)(c1ccc(Cl)cc1)C(c1ccc(C2OCCO2)cn1)c1cc(F)ccc1F (centres unmarked) [Example 330, 2-[(4-Chlorophenylsulfonyl)-(2,5-difluorophenyl)methyl]-5-(1,3-dioxolan-2-yl)pyridine]		50 to 500 nM	167 to 168 °C
O=S(=O)(c1ccc(Cl)cc1)C(c1ccc(CO)cn1)c1cc(F)ccc1F (centres unmarked) [Example 331, 2-[(4-chlorophenylsulfonyl)(2,5-difluorophenyl)methyl]-5-(hydroxymethyl)pyridine]		50 to 500 nM	151 to 152 °C
O=C(O)CCc1ccc(C(c2cc(F)ccc2F)S(=O)(=O)c2ccc(Cl)cc2)nc1 (centres unmarked) [Example 334, 3-[6-[(4-Chlorophenylsulfonyl)-(2,5-difluorophenyl)methyl]pyridin-3-yl]propionic Acid]		50 to 500 nM	158 to 160 °C
O=S(=O)(c1ccc(Cl)cc1)C(c1cc(F)ccc1F)c1ccncc1Cl (centres unmarked) [Example 343, 3-Chloro-4-[(4-chlorophenylsulfonyl)-(2,5-difluorophenyl)methyl]pyridine]		≤ 50 nM	160 to 161 °C
[O-][S+](c1ccc(Cl)cc1)C(c1cc(F)ccc1F)c1ccncc1Cl (centres unmarked) [Example 344, 3-Chloro-4-[(4-chlorophenylsulfinyl)-(2,5-difluorophenyl)methyl]pyridine]		≤ 50 nM	
O=S(=O)(c1ccc(Cl)cc1)C(c1cc(F)ccc1F)c1cc(Cl)ncc1Cl (centres unmarked) [Example 345, 2,5-Dichloro-4-[(4-chlorophenylsulfonyl)-(2,5-difluorophenyl)methyl]pyridine 0.5 hydrate]		≤ 50 nM	
O=S(=O)(c1ccc(Cl)cc1)C(c1cc(F)ccc1F)c1cc(N2CCOCC2)ncc1Cl (centres unmarked) [Example 347, 4-[5-Chloro-4-[(4-chlorophenylsulfonyl)-(2,5-difluorophenyl)methyl]pyridin-2-yl]morpholine]		≤ 50 nM	180 to 181 °C
O=S(=O)(c1ccc(Cl)cc1)C(c1cc(F)ccc1F)c1cc(NCC[N+]2([O-])CCOCC2)ncc1Cl (centres unmarked) [Example 349, 4-[2-[5-Chloro-4-[(4-chlorophenylsulfonyl)-(2,5-difluorophenyl)methyl]pyridin-2-yl]aminoethyl]morpholine N-Oxide]		≤ 50 nM	
CS(=O)(=O)NCc1ccc(C(c2cc(F)ccc2F)S(=O)(=O)c2ccc(Cl)cc2)nc1 (centres unmarked) [Example 370, N-[[6-(4-Chlorophenylsulfonyl)(2,5-difluorophenyl)methylpyridin-3-yl]methyl]methanesulfonamide]		50 to 500 nM	
COC(=O)OCc1ccc(C(c2cc(F)ccc2F)S(=O)(=O)c2ccc(Cl)cc2)nc1 (centres unmarked) [Example 372, [6-(4-Chlorophenylsulfonyl)(2,5-difluorophenyl)methylpyridin-3-yl]methyl Methyl Carbonate]		50 to 500 nM	
CNCCN(C)c1cc(C(c2cc(F)ccc2F)S(=O)(=O)c2ccc(Cl)cc2)c(Cl)cn1 (centres unmarked) [Example 397, 5-Chloro-4-[(4-chlorophenylsulfonyl)-(2,5-difluorophenyl)methyl]-2-[N-methyl-N-[2-(methylamino)ethyl]amino]pyridine]		≤ 50 nM	
O=S(=O)(c1ccc(Cl)cc1)C(c1cc(F)ccc1F)c1cc(N2CCC[C@H]2CO)ncc1Cl (some centres unmarked) [Example 399]		≤ 50 nM	
NCC1CN(c2cc(C(c3cc(F)ccc3F)S(=O)(=O)c3ccc(Cl)cc3)c(Cl)cn2)CCO1 (centres unmarked) [Example 402, 2-Aminomethyl-4-[5-chloro-4-[(4-chlorophenylsulfonyl)-(2,5-difluorophenyl)methyl]pyridin-2-yl]morpholine]		≤ 50 nM	
